Experimental data taken from publication PMC9223764, “In Vitro Selection and Characterization of HIV-1 Variants with Increased Resistance to LP-40, Enfuvirtide-Based Lipopeptide Inhibitor” (International Journal of Molecular Sciences, 2022).
“And” between values parts separate entries of the source, which are not always exact repeats. Equal entries are not always repeated. Where two headings read alike, the source gives them in different places. Where a SMILES comes first, the peptide text is derived from it. The star is where a group is joined. Palmitoyl = CCCCCCCCCCCCCCCC(=O)*

Key:
Format in all cases: cell-based
[1] = system: T20- and LP40-resistant mutant pseudoviruses of HIV-1 NL4-3; details: for Largest decrease in susceptibility among LP-40-resistant strains / Largest decrease in susceptibility among T20-resistant strains / Decrease in sensitivity, range over strains / Decrease in sensitivity, range over mutants / Decrease in sensitivity: relative to WT
Experimental: To simulate the sequence changes of viral resistance genes under different drug concentration pressures, we constructed the Env genes under different drug concentration pressures in the PCDNA3.1 vector and obtained a series of mutations. […] T20-V 6~12, T20-V 13~14, and T 20-V 15~18 were constructed at concentrations of 200 µM (P21), 400 µM (P24), and 2000 µM (P32), respectively. Similarly, the LP-40 pressure concentrations were 0.3 µM, 8 µM, 20 µM, and 200 µM, respectively, and the constructs were numbered LP40-V 1~5, LP40-V 6~8, LP40-V 9~11, and LP40-V 12~15. Resistance mutations will cause varying levels of damage to the function of the pseudoviral envelope proteins. Here, we explored how serial mutations affect the function of viral envelope proteins. Based on this problem, we performed a single round of quantitative P24-infection experiments, packaging the pseudovirus with a previously constructed series of mutant plasmids. We compared the invasion ability of the HIV-1 wild-type and mutant pseudoviruses toward target cells under the same P24 content (using the invasion capacity of each subtype as 100%).
The frequency of the T20-V8 strain was 1/12. From sequence alignment, except for the L33S, which appeared in all the sequences, the new mutation site of D36G/V38A/N42T was also introduced.
Among them, LP-40-inhibited LP40-V11 reached 3.3 µM. When the concentration of LP-40 rose to 200 µM, I37T disappeared, and L33S/D36G/V38A/N42T/I69V became the main mutation point.
The mutation G20V only appeared in T20-induced drug resistance, and the frequency was low. […] This mutation point N126K appeared in LP-40-induced drug resistance with a high frequency.
(§1) The infectivity of HIV Env mutants and the inhibitory activities of membrane fusion inhibitors on mutants in TZM-bl cells were measured using a single-cycle infection assay as described previously. Briefly, the HIV pseudovirus was packed using an Env-coding plasmid, and pSG3ΔEnv was co-transfected into HEK293T cells. pSG3ΔEnv encodes an Env-defective, luciferase-expressing HIV-1 genome. After the pseudoviruses were harvested and filtrated, the amount of pseudoviruses was fixed via P24 antigen, and their infectivity was determined in TZM-bl cells. In order to measure the inhibitory activities of the inhibitors, inhibitors diluted serially 3-fold were mixed with an equal volume of pseudoviruses, and then 100 µL 1 × 10^5/mL TZM-bl cells were added to the mixture and incubated at 37 °C with 5% CO2 for 48 h. After that, TZM-bl cells were lysed using reporter lysis buffer, and IC50 values were calculated according to luciferase activity measured by luciferase assay reagents and a luminescence counter (Promega, Madison, WI, USA).

[2] = system: HIV-1 NL4-3 gp41 I37T pseudovirus; details: for Fold change in IC50: I37T relative to WT NL4-3; for IC50: I37T, TZM-bl cells, 48 h, luciferase, mean ± SD, triplicate, repeated three times
Experimental: (§2) Viral RNA was extracted from the supernatant, and, after reverse transcription, the cDNA was amplified using PCR. These amplified DNA were connected to the T-Easy vector and transformed to Trans 2-Blue Chemically Competent Cells. These sequences were determined via sequencing. The expression plasmids, which contained different HIV-1NL4-3 Env mutants, were constructed using DNA assembly (NEBuilder® HiFi DNA Assembly Master Mix). In brief, two primers were used to amplify Env, and the other two primers were used to amplify the vector fragment. The products of PCR were purified with a 20–25 bp overlap in the terminal of Env and the vector fragment Env and the vector fragment were added to the DNA assembly master mix at […] for 15 min and then transformed to Trans 2-Blue Chemically Competent Cells. Additionally, a single-point mutation was generated using double-stranded DNA templates and a selection of mutants with a restriction enzyme (DpnI) as described previously.
as §1

[3] = system: HIV-1 NL4-3 gp41 L33S pseudovirus; details: for Fold change in IC50: L33S relative to WT NL4-3; for IC50: L33S, TZM-bl cells, 48 h, luciferase, mean ± SD, triplicate, repeated three times
Experimental: as §2, §1

[4] = system: HIV-1 NL4-3 gp41 A21T pseudovirus; details: Table 2; for IC50: A21T, TZM-bl cells, 48 h, luciferase, mean ± SD, triplicate, repeated three times
Experimental: (§3) The entry abilities of A15V, L57H, R68G, G86D, C87Y, E119G, and N140S were almost completely lost, corresponding to LP40-V6, LP40-V7, T20-V9, LP40-V3, LP40-V5, LP40-V4, and T20-V5, respectively, so it was determined that these mutation sites might be lethal mutations. […] The differences between the wild-type envelope proteins and serial mutant proteins in mediating membrane fusion were compared using a double-separated protein-based fusion experimental system. […] G20V, A21T, E119G, and Y127H had only an approximately 10% fusion capacity, and L33S, N42D, N42T, and N43S had less than 50% fusion capacity, but N140S had approximately 60% fusion capacity (Figure 6B). […] Among them, we selected the fusion ability of the sixth hour to evaluate the fusion activities of the mutant strains (Figure 6B).
as §2, with “previously. The successful mutations were confirmed via sequencing.” for “previously.”
as §1

[5] = system: HIV-1 NL4-3 gp41 S129N pseudovirus; details: Table 2; for IC50: S129N, TZM-bl cells, 48 h, luciferase, mean ± SD, triplicate, repeated three times
Experimental: as §3
as §2, with “previously. The successful mutations were confirmed via sequencing.” for “previously.”
as §1

[6] = system: HIV-1 NL4-3 gp41 D36G pseudovirus; details: Table 2; for IC50: D36G, TZM-bl cells, 48 h, luciferase, mean ± SD, triplicate, repeated three times
Experimental: as §3
as §2, with “previously. The successful mutations were confirmed via sequencing.” for “previously.”
as §1

[7] = six point-mutant pseudoviruses L33S, I37T, V38A, V38T, N42T, N43S
[8] = six point-mutant pseudoviruses L33S, I37T, V38A, V38T, N42T, N43S, read-out: IC50, range over mutants

Compound	Largest decrease in susceptibility among LP-40-resistant strains [1]	Largest decrease in susceptibility among T20-resistant strains [1]	Decrease in sensitivity, range over mutants [1, 7]	IC50 [1, 8]	IC50 ([2]; Table 2)	IC50 ([3]; Table 2)	IC50 [4]	IC50 [5]	IC50 [6]	further results
CCCCCCCCCCCCCCCC(=O)NCCCC[C@H](NC(=O)[C@H](CC(=O)O)NC(=O)[C@H](CC(C)C)NC(=O)[C@H](CCC(=O)O)NC(=O)[C@H](CC(C)C)NC(=O)[C@H](CC(C)C)NC(=O)[C@H](CCC(=O)O)NC(=O)[C@H](CCC(N)=O)NC(=O)[C@H](CCC(=O)O)NC(=O)[C@H](CC(N)=O)NC(=O)[C@H](CCCCN)NC(=O)[C@H](CCC(=O)O)NC(=O)[C@H](CCC(N)=O)NC(=O)[C@H](CCC(N)=O)NC(=O)[C@H](CC(N)=O)NC(=O)[C@H](CCC(N)=O)NC(=O)[C@H](CO)NC(=O)[C@H](CCC(=O)O)NC(=O)[C@H](CCC(=O)O)NC(=O)[C@@H](NC(=O)[C@H](CC(C)C)NC(=O)[C@H](CO)NC(=O)[C@H](Cc1c[nH]cn1)NC(=O)[C@@H](NC(=O)[C@H](CC(C)C)NC(=O)[C@H](CO)NC(=O)[C@@H](NC(=O)[C@H](Cc1ccc(O)cc1)NC(C)=O)[C@@H](C)O)[C@@H](C)CC)[C@@H](C)CC)C(N)=O [LP-40] (Ac-YTSLIHSLIEESQNQQEKNEQELLELDK(Palmitoyl)-NH2)	over 227 fold	227 fold	6–111 fold	200 to 3500 nM	515 ± 74.3 nM	2120 ± 534 nM	26.8 ± 8.36 nM	34 ± 10 nM	2.22 ± 0.57 nM	Decrease in sensitivity, range over strains ([1]; first group of LP-40-resistant strains (LP40-V1, LP40-V2)): 1.5–12.6 fold; Decrease in sensitivity ([1]; strains induced at LP-40 200 µM): over 227 fold; Decrease in sensitivity ([1]; viral strains induced at LP-40 8 µM and 20 µM): more than 92 fold; IC50 ([1]; viral strains induced at LP-40 8 µM and 20 µM, read-out: IC50, range over strains): 2800 to 3300 nM; Fold change in IC50 ([2]; Table 2): 16.33 fold; Fold change in IC50 ([2]; Table 3): 18.85 fold; Fold change in IC50 ([3]; Table 2): 67 fold and 67.08 fold; Fold change in IC50 ([3]; Table 3): 77.43 fold; Fold change in IC50 ([4]; A21T relative to WT NL4-3): 0.85 fold; Fold change in IC50 ([5]; S129N relative to WT NL4-3): 1.08 fold; Fold change in IC50 ([6]; D36G relative to WT NL4-3): 0.07 fold
Enfuvirtide	107 fold	up to 112 fold	6–51 fold	410 to 3400 nM	711 ± 157 nM	3450 ± 564 nM	58.9 ± 9.24 nM	70.3 ± 19.8 nM	6 ± 1.68 nM	Decrease in sensitivity, range over strains ([1]; strains induced at T20 2000 µM): 32- to 112 fold; Decrease in sensitivity ([1]; viral strains induced at T20 200 µM): more than 50 fold; IC50 ([1]; viral strains induced at T20 200 µM, read-out: IC50, range over strains): 2800 to 5300 nM; Decrease in sensitivity, range over strains ([1]; virus strain induced at T20 12 µM): one- to two
